Earlier results in patent publication US20240252489A1, “REPEATED ADMINISTRATION OF DIHYDROERGOTAMINE FOR TREATMENT OF FREQUENT MIGRAINE HEADACHES” (Woodward Specialty LLC, priority 2020, published 2024).

System: patients with frequent migraine headaches
Conditions: 15 min after administration; reported in the literature

N[C@@H]1c2cccnc2[C@H](OC(=O)N2CCC(n3c(=O)[nH]c4ncccc43)CC2)CC[C@H]1c1cccc(F)c1F [Rimegepant]
subjects having pain relief: 8%
